Here are results for 14 molecules from US9138436B2, “Inhibitors of Bruton's tyrosine kinase” (PHARMACYCLICS LLC, priority 2011, dated 2015).

Where only a bound is given, the exact number is not on record here.

The target of this assay is Btk (Homo sapiens, UniProt Q06187). Description: Btk in vitro inhibitory activity, acellular kinase assay (TR-FRET). The assay is classed as biochemical. As to the method:
Btk kinase activity is determined using a time-resolved fluorescence resonance energy transfer (TR-FRET) methodology. Measurements are performed in a reaction volume of 50 μL using 96-well assay plates. Kinase enzyme, inhibitor, ATP (at the Km for the kinase), and 1 μM peptide substrate (Biotin-AVLESEEELYSSARQ-NH2) are incubated in a reaction buffer composed of 20 mM Tris, 50 mM NaCl, MgCl2 (5-25 mM depending on the kinase), MnCl2 (0-10 mM), 1 mM DTT, 0.1 mM EDTA, 0.01% bovine serum albumin, 0.005% Tween-20, and 10% DMSO at pH 7.4 for one hour. The reaction is quenched by the addition of 1.2 equivalents of EDTA (relative to divalent cation) in 25 μL of 1× Lance buffer (Perkin-Elmer). Streptavidin-APC (Perkin-Elmer) and Eu-labeled p-Tyr100 antibody (Perkin-Elmer) in 1× Lance buffer are added in a 25 μL volume to give final concentrations of 100 nM and 2.5 nM, respectively, and the mixture is allowed to incubate for one hour. The TR-FRET signal is measured on a multimode plate reader with an excitation wavelength (λEx) of 330 nm and detection wavelengths (λEm) of 615 and 665 nm. Activity is determined by the ratio of the fluorescence at 665 nm to that at 615 nm. For each compound, enzyme activity is measured at various concentrations of compound. Negative control reactions are performed in the absence of inhibitor in replicates of six, and two no-enzyme controls were used to determine baseline fluorescence levels. Inhibition constants, Ki(app), are obtained using the program BatchKi (Kuzmic et al. (2000), Anal. Biochem. 286:45-50). IC50s are obtained according to the equation: IC50={Ki(app)/(1+[ATP]/Km^ATP)}+[E]total/2;
For all kinases, [ATP]=Km^ATP, [Btk]total=0.5 nM and [Lck]total=6 nM.

For orientation: IC50 means the concentration needed to halve the response being measured. A lower IC50 goes with inhibition by little substance.

Sequence of Btk (Q06187 whole entry): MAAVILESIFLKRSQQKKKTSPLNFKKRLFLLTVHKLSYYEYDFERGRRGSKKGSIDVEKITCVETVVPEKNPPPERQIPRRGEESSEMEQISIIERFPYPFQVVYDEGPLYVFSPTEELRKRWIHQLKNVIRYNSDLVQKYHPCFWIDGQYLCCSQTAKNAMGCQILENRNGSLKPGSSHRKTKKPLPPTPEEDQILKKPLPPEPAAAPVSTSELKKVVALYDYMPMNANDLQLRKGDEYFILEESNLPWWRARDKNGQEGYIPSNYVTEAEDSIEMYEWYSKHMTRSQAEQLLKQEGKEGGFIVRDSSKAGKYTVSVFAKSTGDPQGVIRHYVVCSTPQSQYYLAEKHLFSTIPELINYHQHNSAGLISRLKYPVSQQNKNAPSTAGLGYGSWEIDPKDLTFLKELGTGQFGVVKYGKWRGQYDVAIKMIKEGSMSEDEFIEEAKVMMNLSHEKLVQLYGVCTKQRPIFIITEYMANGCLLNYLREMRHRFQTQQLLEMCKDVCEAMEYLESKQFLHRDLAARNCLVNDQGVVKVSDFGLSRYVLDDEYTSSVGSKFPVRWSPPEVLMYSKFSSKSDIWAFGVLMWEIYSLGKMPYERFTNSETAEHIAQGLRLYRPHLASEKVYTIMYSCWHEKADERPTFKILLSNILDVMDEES

`Nc1ncnc2c1c(-c1ccc(Oc3ccccc3)cc1)nn2[C@@H]1CCN(C(=O)/C=C/CNC2CC2)C1` [Example 3a, (R,E)-1-(3-(4-amino-3-(4-phenoxyphenyl)-1H-pyrazolo[3,4-d]pyrimidin-1-yl)pyrrolidin-1-yl)-4-(cyclopropylamino)but-2-en-1-one] registered an IC50 below 100 nM.
`CN(C/C=C/C(=O)N1CC[C@@H](n2nc(-c3ccc(Oc4cccc(F)c4)cc3)c3c(N)ncnc32)C1)C1CCC1` [Example 4b, (R,E)-1-(3-(4-amino-3-(4-(3-fluorophenoxy)phenyl)-1H-pyrazolo[3,4-d]pyrimidin-1-yl)pyrrolidin-1-yl)-4-(cyclobutyl(methyl)amino)but-2-en-1-one] came in with an IC50 below 100 nM.
As for `CN(C/C=C/C(=O)N1CC[C@@H](n2nc(-c3ccc(Oc4cccc(F)c4)cc3)c3c(N)ncnc32)C1)C1CC1` [Example 4c, (R,E)-1-(3-(4-amino-3-(4-(3-fluorophenoxy)phenyl)-1H-pyrazolo[3,4-d]pyrimidin-1-yl)pyrrolidin-1-yl)-4-(cyclopropyl(methyl)amino)but-2-en-1-one], the figure is below 100 nM; as for `CCN(C/C=C/C(=O)N1CCC[C@@H](n2nc(-c3ccc(Oc4ccccc4)cc3)c3c(N)ncnc32)C1)C1CC1` [Example 5a, (R,E)-1-(3-(4-amino-3-(4-phenoxyphenyl)-1H-pyrazolo[3,4-d]pyrimidin-1-yl)piperidin-1-yl)-4-(cyclopropyl(ethyl)amino)but-2-en-1-one], below 100 nM.
As for `CN(C/C=C/C(=O)N1CCC(n2nc(-c3ccc(Oc4ccccc4)cc3)c3c(N)ncnc32)CC1)C1CC1` [Example 5b, (E)-1-(4-(4-amino-3-(4-phenoxyphenyl)-1H-pyrazolo[3,4-d]pyrimidin-1-yl)piperidin-1-yl)-4-(cyclopropyl(methyl)amino)but-2-en-1-one], the figure is below 100 nM.
As for `CN(C/C=C/C(=O)N1CC(n2nc(-c3ccc(Oc4ccccc4)cc3)c3c(N)ncnc32)C1)C1CC1` [Example 5c, (E)-1-(3-(4-amino-3-(4-phenoxyphenyl)-1H-pyrazolo[3,4-d]pyrimidin-1-yl)azetidin-1-yl)-4-(cyclopropyl(methyl)amino)but-2-en-1-one], the figure is below 100 nM; as for `CN(C/C=C/C(=O)N1CC[C@@H](n2cc(-c3ccc(Oc4ccccc4)cc3)c3c(N)ncnc32)C1)C1CC1` [Example 6b, (R,E)-1-(3-(4-amino-5-(4-phenoxyphenyl)-7H-pyrrolo[2,3-d]pyrimidin-7-yl)pyrrolidin-1-yl)-4-(cyclopropyl(methyl)amino)but-2-en-1-one], below 100 nM.
Take `CN(C(=O)/C=C/CN(C)C1CC1)c1ccc(-n2nc(-c3ccc(Oc4ccccc4)cc3)c3c(N)ncnc32)cc1` [Example 7b, (E)-N-(4-(4-amino-3-(4-phenoxyphenyl)-1H-pyrazolo[3,4-d]pyrimidin-1-yl)phenyl)-4-(cyclopropyl(methyl)amino)-N-methylbut-2-enamide]: the IC50 was below 100 nM.
As to `CN(C(=O)/C=C/CN(C)C1CCC1)c1ccc(-n2nc(-c3ccc(Oc4ccccc4)cc3)c3c(N)ncnc32)cc1` [Example 7c, (E)-N-(4-(4-amino-3-(4-phenoxyphenyl)-1H-pyrazolo[3,4-d]pyrimidin-1-yl)phenyl)-4-(cyclobutyl(methyl)amino)-N-methylbut-2-enamide], the half-inhibitory concentration (IC50) is below 100 nM.
The result for `CN(C(=O)/C=C/CN(C)C1CC1)c1cccc(-n2nc(-c3ccc(Oc4ccccc4)cc3)c3c(N)ncnc32)c1` [Example 7d, (E)-N-(3-(4-amino-3-(4-phenoxyphenyl)-1H-pyrazolo[3,4-d]pyrimidin-1-yl)phenyl)-4-(cyclopropyl(methyl)amino)-N-methylbut-2-enamide] reads below 100 nM.
As for `CN(C(=O)/C=C/CN(C)C1CCC1)c1cccc(-n2nc(-c3ccc(Oc4ccccc4)cc3)c3c(N)ncnc32)c1` [Example 7e, (E)-N-(3-(4-amino-3-(4-phenoxyphenyl)-1H-pyrazolo[3,4-d]pyrimidin-1-yl)phenyl)-4-(cyclobutyl(methyl)amino)-N-methylbut-2-enamide], the figure is below 100 nM.
The molecule `CN(C/C=C/C(=O)Nc1cccc(-n2nc(-c3ccc(Oc4ccccc4)cc3)c3c(N)ncnc32)c1)C1CC1` [Example 7f, (E)-N-(3-(4-amino-3-(4-phenoxyphenyl)-1H-pyrazolo[3,4-d]pyrimidin-1-yl)phenyl)-4-(cyclopropyl(methyl)amino)but-2-enamide] registered an IC50 below 100 nM.
As for `CN(C/C=C/C(=O)Nc1cccc(-n2nc(-c3ccc(Oc4ccccc4)cc3)c3c(N)ncnc32)c1)C1CCC1` [Example 7g, (E)-N-(3-(4-amino-3-(4-phenoxyphenyl)-1H-pyrazolo[3,4-d]pyrimidin-1-yl)phenyl)-4-(cyclobutyl(methyl)amino)but-2-enamide], the figure is below 100 nM; as for `CN(C(=O)/C=C/CN(C)C1CC1)c1cccc(-n2cc(-c3ccc(Oc4ccccc4)cc3)c3c(N)ncnc32)c1` [Example 8a], below 100 nM.
